# Reference: US6020316A, “Glutaraldehyde modified chemotherapeutic agents and methods of use thereof” (priority 1998, dated 2000)
# What was measured:
# L929/DOX cells = assay: Drug efflux from L929/DOX cells versus wild type cells; type: cell-based, murine
# Excerpt: The surviving resistant population was used in subsequent experiments.
# [1] = tested on: HTB (bladder transitional cell carcinoma); assay: Clonogenic survival of human bladder transitional cell carcinoma cells; type: cell-based; details: FIG. 3A
# Protocol: (§1) The murine L929 cell line, a human breast adenocarcinoma cell line (MCF-7) and a human bladder transitional cell carcinoma cell line (RT-4) were used to test the compounds of the present invention. All cell lines were obtained from MA Bioproducts (Bethesda, Md.) and were routinely maintained in high-glucose Dulbecco's Modified Eagle's Minimum Essential Medium (DMEM) and 10% newborn calf serum (L929) or 10% fetal calf serum (MCF-7 and RT-4). A DOX-resistant cell line, L929/DOX, was prepared by treating the L929 cell line with gradually increasing concentrations of DOX in vitro until a cell line that grew at a concentration of 50 μg/ml DOX was attained. A resistant subclone was then treated once with 100 μg/ml of DOX. The surviving resistant population was used in subsequent experiments. The L929/DOX cells were maintained in DMEM medium supplemented with 10% fetal calf serum and lacking DOX.
# (§2) Cells from the stock cultures were plated in 35 mm plastic tissue culture dishes at a density of 1×10^5 /cm^2. After 1 to 2 days, when the monolayer had reached a final density of 2-3×10^5 /cm^2, the cultures were washed twice with Dulbecco's phosphate-buffered saline and 2 ml of serum-free DMEM was added. […] Plates were examined after staining with methylene blue, and clones containing more than 10 cells were counted. […]
# [2] = tested on: MCF-7 (breast adenocarcinoma); assay: Clonogenic survival of human breast adenocarcinoma cells; type: cell-based; details: FIG. 3B
# Protocol: as §1, §2
# L929 cells = assay: Fluorescence uptake and localization of DOX and GLU-DOX in L929 cells; type: cell-based, murine
# Protocol: Cells were grown on 25 mm diameter microscope cover slips (Thomas, Sweedsboro, N.J.) in 35 mm tissue culture dishes. […] The wells were then rinsed two times with phosphate buffered saline and changed to fresh medium. After incubation for 0 h or 2 h, the cover slips were extracted from the plates, rinsed with PBS, mounted in an Attofluor cell chamber (Molecular Probes, Inc. Eugene, Oreg.), and examined by epifluorescence using a Zeiss microscope equipped with a 63× immersion oil objective. The combination of G546 excitation filer, FT580 dichroic mirror, and LP590 emission filter allowed efficient detection of doxorubicin fluorescence at 590 nm. The fluorescence was detected by a CCD72S camera (Dage-MTI, Inc, Michigan City, Ind.) and images were acquired and analyzed using OPTIMAS software (Optimas Corp., Seattle, Wash.). […] Area (A) per fluorescent image, i.e., per cell, and mean gray per image (MI) were measured for at least 20 cells. Mean gray for a background area containing no cell images (MB) was also determined. Fluorescence units (F.U.) per cell were calculated as: [formula]
# HLC (lung carcinoma) = assay: Clonogenic survival of human lung carcinoma cells; type: cell-based; details: FIG. 3C
# Protocol: (§3) Cells from the stock cultures were plated in 35 mm plastic tissue culture dishes at a density of 1×10^5 /cm^2. After 1 to 2 days, when the monolayer had reached a final density of 2-3×10^5 /cm^2, the cultures were washed twice with Dulbecco's phosphate-buffered saline and 2 ml of serum-free DMEM was added. […] After incubation for 3 hours at 37° C. in 10% CO2, the dishes were rinsed twice with phosphate-buffered saline (pH 7.4) to remove extracellular drugs, trypsinized, and plated for determination of clonogenic survival. Trypsinization involved dispersal of cells with 0.25% trypsin, followed by culture in DMEM plus 10% newborn calf serum for 7 days. Plates were examined after staining with methylene blue, and clones containing more than 10 cells were counted. The surviving fraction was the ratio of the plating efficiency of the cultures exposed to DOX divided by the plating efficiency of control cultures maintained in a medium of the same composition. Plating efficiency is defined as the number of colonies formed divided by the number of cells plated.
# tumor cell = assay: Antitumor cell activity of DOX modified with other aldehydes and crosslinking agents; type: cell-based; details: substituted for glutaraldehyde in the basic modification protocol
# Protocol: Other aldehydes and crosslinking agents that were substituted for glutaraldehyde in the basic modification protocol included acetaldehyde, butyraldehyde, hexanal, formaldehyde, succinyl chloride, glutaryl dichloride (all from Aldrich Chemical Co., Milwaukee, Wis.), DSG (disuccinimidyl glutarate), DMS (dimethylsuberimidate), and BS^3 (last three compounds from Pierce Chemical Co., Rockford, Ill.).
# as §3
molecule,measurement,setting,value
"COc1cccc2c1C(=O)c1c(O)c3c(c(O)c1C2=O)C[C@@](O)(C(=O)CO)C[C@@H]3O[C@H]1C[C@H](N)[C@H](O)[C@H](C)O1 [DOX, doxorubicin]",drug efflux from L929/DOX relative to wild type cells,L929/DOX cells,pumped out of the L929/DOX cells much faster than out of the wild type cells
same,sensitivity to DOX,[1],relatively insensitive
same,sensitivity to DOX,[2],relatively insensitive
same,Uptake: Mean Fluorescence Units per Cell,"L929 cells; 5 μg/ml, 3 h at 37° C.",124 ± 29 Fluorescence Units per Cell
same,Uptake: Mean Fluorescence Units per Cell,"L929 cells; 5 μg/ml, 3 h at 37° C. + 2 h chase",18 ± 6 Fluorescence Units per Cell
same,fluorescence after chase in drug-free medium,"L929 cells; 2 hr chase, FIGS. 4B, 4D",nearly all DOX was lost from the cytoplasmic compartment although some nuclear fluorescence was still detectable
same,subcellular distribution of fluorescence,"L929 cells; 3 h exposure, 5 μg/ml, FIGS. 4A, 4C",in both nucleus and cytoplasm with distinct paranuclear concentration in some cells
same,sensitivity to DOX,HLC (lung carcinoma),relatively insensitive
CCCCCC=O [hexanal],antitumor cell activity of the DOX reaction product relative to DOX,tumor cell,"None of these compounds, when reacted with DOX, produced a derivative with increased antitumor cell activity relative to DOX"
COC(=O)c1ccccc1-c1c2ccc(=N)cc-2oc2cc(N)ccc12 [rhodamine 123],intracellular localization compared with rhodamine 123,"L929 cells; 2 h exposure, GLU-DOX (100:1) 5 μg/ml, rhodamine 123 10 μg/ml, FIGS. 5A, 5B",strikingly similar
O=C(Cl)CCC(=O)Cl [succinyl chloride],antitumor cell activity of the DOX reaction product relative to DOX,tumor cell,"None of these compounds, when reacted with DOX, produced a derivative with increased antitumor cell activity relative to DOX"
acetaldehyde,antitumor cell activity of the DOX reaction product relative to DOX,tumor cell,"None of these compounds, when reacted with DOX, produced a derivative with increased antitumor cell activity relative to DOX"
butyraldehyde,antitumor cell activity of the DOX reaction product relative to DOX,tumor cell,"None of these compounds, when reacted with DOX, produced a derivative with increased antitumor cell activity relative to DOX"
formaldehyde,antitumor cell activity of the DOX reaction product relative to DOX,tumor cell,"None of these compounds, when reacted with DOX, produced a derivative with increased antitumor cell activity relative to DOX"
glutaryl dichloride,antitumor cell activity of the DOX reaction product relative to DOX,tumor cell,"None of these compounds, when reacted with DOX, produced a derivative with increased antitumor cell activity relative to DOX"
